Reference: PMC8774231, “Point Mutations at a Key Site Alter the Cytochrome P450 OleP Structural Dynamics” (Biomolecules, 2021)

Columns and labels:
Assay in all cases: UV-visible spectral titration, difference spectra, quadratic fit
Format in all cases: binding
cytochrome P450 OleP [1] = target: T1, cytochrome P450 OleP (Streptomyces antibioticus, UniProt Q59819, G92W)
T1 construct: recombinant His-tagged OleP mutants from pET28b(+)-OleP, expressed in E. coli BL21(DE3), monomer, heme-containing
T1 sequence (Q59819 1-407 G92W): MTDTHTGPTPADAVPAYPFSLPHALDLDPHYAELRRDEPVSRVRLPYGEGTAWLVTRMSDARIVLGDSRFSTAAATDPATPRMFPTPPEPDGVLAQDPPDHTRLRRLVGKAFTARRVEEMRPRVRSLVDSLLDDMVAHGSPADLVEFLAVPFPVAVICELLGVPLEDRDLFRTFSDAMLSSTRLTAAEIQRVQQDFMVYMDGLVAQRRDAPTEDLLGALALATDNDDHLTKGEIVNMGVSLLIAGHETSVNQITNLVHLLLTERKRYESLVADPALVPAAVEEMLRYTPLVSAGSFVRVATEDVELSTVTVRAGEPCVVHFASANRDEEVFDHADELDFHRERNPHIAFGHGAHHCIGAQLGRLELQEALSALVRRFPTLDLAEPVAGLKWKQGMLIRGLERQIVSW

cytochrome P450 OleP [2] = target: T2, cytochrome P450 OleP (Streptomyces antibioticus, UniProt Q59819, E89Y)
T2 construct: recombinant His-tagged OleP mutants from pET28b(+)-OleP, expressed in E. coli BL21(DE3), monomer, heme-containing
T2 sequence (Q59819 1-407 E89Y): T1 sequence (Q59819 1-407 G92W)

cytochrome P450 OleP [3] = target: T3, cytochrome P450 OleP (Streptomyces antibioticus, UniProt Q59819, S240Y)
T3 construct: recombinant His-tagged OleP mutants from pET28b(+)-OleP, expressed in E. coli BL21(DE3), monomer, heme-containing
T3 sequence (Q59819 1-407 S240Y): T1 sequence (Q59819 1-407 G92W)

CC[C@H]1OC(=O)[C@H](C)[C@@H](O)[C@H](C)[C@@H](O)[C@@H](C)C[C@@H](C)C(=O)[C@H](C)[C@@H](O)[C@H]1C [6DEB]
Kd (cytochrome P450 OleP [1]): 1200 ± 100 nM | Kd (cytochrome P450 OleP [2]): 8500 ± 800 nM | Kd (cytochrome P450 OleP [3]): 700 ± 100 nM
